Laboratory results taken from publication PMC4516916, “Development of Plate Reader and On-Line Microfluidic Screening to Identify Ligands of the 5-Hydroxytryptamine Binding Protein in Venoms” (Toxins, 2015).
Where a name gives a salt, the structure may show the parent alone.

Columns and labels:
A1B2D1R 5HTBP mutant [1] = target: T1, A1B2D1R 5HTBP mutant (Aplysia californica, UniProt Q8WSF8); test: Radioligand binding assay with [3H]-granisetron (SPA)
Method: The competitive radioligand-binding assay was performed as described by Kesters et al. 2013 [10]. His-tagged A1B2D1R 5HTBP was diluted in buffer (10 mM HEPES/0.05% Tween) to obtain 50 ng binding protein per well. […] The concentration of the radioligand [3H]-granisetron (Perkin-Elmer, Life Science, Groningen, The Netherlands, specific activity ~85 Ci/mmol) was 1.99 nM. After addition of PVT Copper His-Tag SPA beads (final concentration 2 mg/mL), the final well volume was 100 µL. The plates (white Optiplates, Perkin-Elmer Life Science, Groningen, The Netherlands) were incubated at room temperature under continuous shaking while protected from light for 1.5 h. The SPA beads were then allowed to settle for 3 h in the absence of light before counting in a Wallac 1450 MicroBeta (Perkin-Elmer Life Science, Groningen, The Netherlands). All radioligand binding data were fit by a non-linear, least squares curve analysis procedure using Graphpad Prism (version 5, GraphPad Software).

A1B2D1R 5HTBP mutant [2] = target: T1, A1B2D1R 5HTBP mutant; test: Fluorescence enhancement microplate reader assay (DAHBA tracer); assay type: binding
Method: Next, specific and non-specific binding was determined by measuring a tracer saturation curve with and without a displacing ligand. In this experiment, the binding protein concentration was 50 nM while 100 µM granisetron was used as displacing ligand for measurement of the non-specific binding curve. […] The non-specific binding, the total binding curve and the resulting specific binding curve is shown (Figure 2C).
Fourteen 5-HT3R ligands, also binding to the 5HTBP [10], were selected for this experiment. The measured Ki values for both the fluorescence enhancement plate reader assay as well as those measured with the radioligand binding assay are listed (Supplementary Information Table S1).
The buffer used for development of the 5HTBP fluorescence enhancement assay consisted of 1 mM KH2PO4, 3 mM Na2HPO4, […], 20 mM trizma base/HCl at pH 7.5 with addition of 400 μg/mL ELISA BR [21]. The fluorescence enhancement was measured with a Victor3 Microplate reader from Perkin-Elmer. The excitation and emission wavelengths were set to 485 and 520 nm, respectively. Black-bottomed 96-well microplates were purchased from Greiner Bio-One (Alphen aan den Rijn, The Netherlands). The final assay volume was 100 µL per well. The 5HTBP was first mixed with the ligands, and then with the tracer ligand. The assay mixture was incubated for 5 min before the measurement. The pharmacological validation was performed by measurement of IC50 curves of twelve 5-HT3R ligands and comparing the results obtained with the results obtained from a radioligand binding assay (see below). The z’ factors for the determination of assay quality were calculated according to Zhang.

A1B2D1R 5HTBP = test: Fluorescence enhancement of anabaseine derivatives with 5HTBP (cuvette fluorometer); assay type: binding, Aplysia californica; conditions: fluorescence in presence of 5HTBP divided by fluorescence in absence of 5HTBP; A1B2D1R variant; excitation 488 nm
Method: (§1) We first evaluated three potentially suitable tracer ligands. […] Fluorescence enhancement factors are defined as fluorescence in presence of 5HTBP divided by fluorescence in absence of 5HTBP. […] DAHBA was therefore selected as the most suitable tracer ligand.
(§2) The fluorescence enhancement properties of three anabaseine derivatives (Supplementary Information Figure S3) bound to the orthosteric binding pocket of two different 5HTBP variants were measured using 1 cm wide glass cuvettes in a Perkin-Elmer LS50B fluorometer (Groningen, The Netherlands). The excitation spectra, λmax (nm), and ε (L·mol^−^1·cm^−^1) values of the anabaseine derivatives are described by Kool et al.. The emission spectra from 500–595 nm were recorded with 0.5 nm intervals with a fixed 488 nm excitation.

A1B2D1W 5HTBP = test: as above; assay type: binding, Aplysia californica; conditions: fluorescence in presence of 5HTBP divided by fluorescence in absence of 5HTBP; A1B2D1W variant; excitation 488 nm
Method: as §1, §2

[3] = Stability of tracer ligand in solution (MS analysis); assay type: physicochemical; conditions: deduced by MS analysis
Source text: as §1

[4] = read-out: Ki RLB (A1B2D1R 5HTBP mutant); [3H]-granisetron 1.99 nM
[5] = read-out: Ki fluorescence enhancement (A1B2D1R 5HTBP mutant), plate reader assay
[6] = [3H]-granisetron 1.99 nM; read-out: Ki RLB (A1B2D1R 5HTBP mutant)
[7] = plate reader assay, read-out: Ki fluorescence enhancement (A1B2D1R 5HTBP mutant)

T1 sequence (Q8WSF8 entry or part of it, change not shown): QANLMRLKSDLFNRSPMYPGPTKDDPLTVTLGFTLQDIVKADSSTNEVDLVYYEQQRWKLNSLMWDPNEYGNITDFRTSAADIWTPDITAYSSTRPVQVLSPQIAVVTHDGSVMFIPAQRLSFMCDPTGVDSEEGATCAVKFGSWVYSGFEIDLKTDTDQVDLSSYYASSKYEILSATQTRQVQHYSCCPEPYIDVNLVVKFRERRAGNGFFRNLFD

Row | Compound | Ki (A1B2D1R 5HTBP mutant [1]; [4]) | Ki (A1B2D1R 5HTBP mutant [2]; [5]) | Ki (A1B2D1R 5HTBP mutant [1]; [6]) | Ki (A1B2D1R 5HTBP mutant [2]; [7]) | also measured
1 | CN1[C@@H]2CC[C@H]1C[C@@H](OC(=O)c1c[nH]c3ccccc13)C2 [tropisetron] | 0.01 µM | 0.04 µM | – | – | –
2 | NCCc1c[nH]c2ccc(F)cc12 [5-fluorotryptamine HCL] | 101 ± 50.2 µM | 110 ± 14 µM | – | – | –
3 | NC1CCN(c2cccc(Cl)n2)CC1 [SR57227] | – | – | 39.7 ± 15 µM | 85 ± 7.62 µM | –
4 | O=C1c2cccc3c2[C@H](CCC3)CN1[C@@H]1CN2CCC1CC2 [palonosetron] | 0.51 ± 0.11 µM | 2.2 ± 0.63 µM | – | – | –
5 | CN(C)c1ccc(/C=C2\CCCN=C2c2cccnc2)cc1 [VUF10907, (E)-3-(3-(4-Dimethylaminobenzylidene)-3,4,5,6-tetrahydropyridin-2-yl)pyridine] | – | – | – | – | fluorescence enhancement factor (A1B2D1R 5HTBP): 3.8; fluorescence enhancement factor (A1B2D1W 5HTBP): 2.5
6 | Cn1cc(C(=O)C(=O)NC2CN3CCC2CC3)c2ccccc21 (stereo not drawn) [RS56812] | – | – | 1.6 ± 0.34 µM | 3.57 ± 0.91 µM | –
7 | CCN(CC)c1ccc(/C=C2\CCCN=C2c2cccnc2)c(O)c1 [DAHBA, (E)-3-(3-(4-diethylamino-2-hydroxybenzylidene)-3,4,5,6-tetrahydropyridin-2-yl)pyridine] | – | – | – | – | fluorescence enhancement factor (A1B2D1R 5HTBP): 4.7
8 | COc1cc(N)c(Cl)cc1C(=O)NC1CN2CCC1CC2 (stereo not drawn) [zacopride] | 1.62 ± 0.57 µM | 4.05 ± 1.14 µM | – | – | –
9 | CN1CCc2cc(/C=C3\CCCN=C3c3cccnc3)ccc21 [VUF11234, (E)-1-methyl-5-((2-(pyridin-3-yl)-5,6-dihydropyridin-3(4H)-ylidene)methyl)indoline] | – | – | – | – | fluorescence enhancement factor (A1B2D1R 5HTBP): 6.5; fluorescence enhancement factor (A1B2D1W 5HTBP): 3.7; degradation in solution [3]: notable degradation in solution
10 | c1ccc2nc(N3CCNCC3)ccc2c1 [quipazine] | 53.8 ± 13.7 µM | 73 ± 32.2 µM | – | – | –
11 | CN1CCN(c2nc3ccccc3nc2Cl)CC1 [VUF10166] | – | – | 2.39 ± 0.58 µM | 11.5 ± 3.58 µM | –
12 | CN1C2CCCC1CC(NC(=O)c1nn(C)c3ccccc13)C2 (stereo not drawn) [granisetron, Granisetron] | 0.05 ± 0.01 µM | 0.24 ± 0.14 µM | – | – | –
13 | C=CCN1CCc2nc(N)sc2CC1 [B-HT920] | – | – | 0.93 ± 0.24 µM | 3.85 ± 0.76 µM | –
14 | RS 16566 | – | – | 0.38 ± 0.09 µM | 3 ± 0.02 µM | –
15 | CN1CCN2c3ncccc3Cc3ccccc3C2C1 (stereo not drawn) [mirtazapine] | 9.29 ± 1.87 µM | 12.8 ± 3.99 µM | – | – | –
